Experimental data as given in patent US20040082606A1, “Excitatory amino acid receptor antagonists” (priority 2003, published 2004).

System: dural protein extravasation
Assay: Animal model of dural protein extravasation (electrical stimulation of the trigeminal ganglion, Evans Blue)
Type: in vivo
Conditions: administered orally to rats
Procedure: The following animal model may be employed to determine the ability of the compounds of Formula I or Formula Ia to inhibit protein extravasation, an exemplary functional assay of the neuronal mechanism of migraine.
A. Harlan Sprague-Dawley rats (225-325 g) or guinea pigs from Charles River Laboratories (225-325 g) are anesthetized with sodium pentobarbital intraperitoneally (65 mg/kg or 45 mg/kg respectively) and are placed in a stereotaxic frame David Kopf Instruments) with the incisor bar set at −3.5 mm for rats or −4.0 mm for guinea pigs. Following a midline sagital scalp incision, two pairs of bilateral holes are drilled through the skull (6 mm posterially, 2.0 and 4.0 mm laterally in rats; 4 mm posteriorly and 3.2 and 5.2 mm laterally in guinea pigs, all coordinates referenced to bregma). […]
D. A fluorescence microscope (Zeiss) equipped with a grating monchromator and a spectrophotometer is used to quantify the amount of Evans Blue dye in each sample. An excitation wavelength of approximately 535 nm is utilized and the emission intensity at 600 nm is determined. […] This facilitates the computer-controlled movement of the stage with fluorescence measurements at 25 points ([…]) on each dural sample. The mean and standard deviation of the measurements are determined by the computer. […]

## CCOC(=O)[C@@H]1C[C@H]2C[C@@H](CN3CC(F)(F)C[C@H]3C(=O)OCC)CC[C@H]2CN1.Cl.Cl [3S,4aR,6S,8aR Ethyl 6-(((2S)-2-Ethoxycarbonyl)4,4-difluoropyrrolidinyl)methyl)-1,2,3,4,4a,5,6,7,8,8a-decahydroisoquinoline-3-carboxylate.dihydrochloride]
  ID100 (dose that inhibits the extravasation by 100%): approximately 0.01 ng/Kg
